Reference: ChEMBL document CHEMBL4651402, “Screening of ~5500 FDA-approved drugs and clinical candidates for anti-SARS-CoV-2 activity” (2021)

System: SARS-CoV-2
Assay: microbe, parasite or virus in culture
Conditions: Severe acute respiratory syndrome coronavirus 2, Vero C1008, 48 h

Row | Structure (SMILES) | IC50 [µM] | IC50 (read-out: pIC50 (converted)) [µM]
1 | COC(=O)C1=C(CN2CC(F)(F)C[C@H]2C(=O)O)NC(c2nccs2)=N[C@@]1(C)c1ccc(F)cc1 | > 20 | > 20
2 | N=C(N)NCCN1CCCCCCC1 [GUANETHIDINE] | > 20 | > 20
3 | COC(=O)C1=CCCN(C)C1 [ARECOLINE] | > 20 | > 20
4 | CCOC(=O)c1ncn2c1CN(C)C(=O)c1cc(F)ccc1-2 [FLUMAZENIL] | > 20 | > 20
5 | N=C(N)NCCC[C@H](NC(=O)c1ccc2ccccc2c1O)C(=O)N1CCC[C@H]1C(N)=O | > 20 | > 20
6 | Cc1cc2c(cc1CC(=O)c1sccc1S(=O)(=O)Nc1onc(C)c1Cl)OCO2 [SITAXENTAN] | > 20 | > 20
7 | NC(=O)NS(=O)(=O)c1ccc(N)cc1 [SULFACARBAMIDE] | > 20 | > 20
8 | CC(=O)C(=O)O [PYRUVATE] | > 20 | > 20
9 | CN1CCN(c2ccc(OC(F)(F)F)c(Nc3ncc4c(n3)-c3c(c(C(N)=O)nn3CCO)CC4)c2)CC1 [ONVANSERTIB] | > 20 | > 20
10 | CC1C2Cc3ccc(O)cc3C1(C)CCN2C (stereo unspecified) | > 20 | > 20
11 | N=C(NCCCCCCNC(=N)NC(=N)Nc1ccc(Cl)cc1)NC(=N)Nc1ccc(Cl)cc1 [CHLORHEXIDINE] | > 20 | > 20
12 | Cc1ccccc1-n1c(C)nc2ccccc2c1=O [METHAQUALONE] | > 20 | > 20
13 | CC(C)NC(=O)COc1cccc(-c2nc(Nc3ccc4[nH]ncc4c3)c3ccccc3n2)c1 [BELUMOSUDIL] | > 20 | > 20
14 | CO[C@@]12CC[C@@]3(C[C@@H]1[C@](C)(O)C(C)(C)C)[C@H]1Cc4ccc(O)c5c4[C@@]3(CCN1CC1CC1)[C@H]2O5 [BUPRENORPHINE] | > 20 | > 20
15 | CC(=O)OCC(=O)C1(O)C(C)CC2C3CC(F)C4=CC(=O)C=CC4(C)C3C(O)CC21C (stereo unspecified) | > 20 | > 20
16 | N=C(Nc1ccccc1)Nc1ccccc1 | > 20 | > 20
17 | CC(=O)N1C[C@H](O)C[C@H]1C(=O)N[C@@H](CCCN=C(N)N)C(=O)c1nc2ccccc2s1 | > 20 | > 20
18 | CN1C(=O)[C@@H](NC(=O)c2cc3ccccc3[nH]2)N=C(c2ccccc2)c2ccccc21 [DEVAZEPIDE] | > 20 | > 20
19 | CCc1cccc2c3c([nH]c12)C(CC)(CC(=O)O)OCC3 (stereo unspecified) [ETODOLAC] | > 20 | > 20
20 | COc1ccc(-c2ccc3cc(C(=O)O)ccc3c2)cc1C12CC3CC(CC(C3)C1)C2 | > 20 | > 20
21 | NC(=O)c1ccccc1O [SALICYLAMIDE] | > 20 | > 20
22 | CCN(CC)CCNC(=O)COc1ccc(OC)cc1 [MEFEXAMIDE] | > 20 | > 20
23 | CC1(C)O[C@@H]2[C@@H](CO[C@@]3(COS(N)(=O)=O)OC(C)(C)O[C@@H]23)O1 [TOPIRAMATE] | > 20 | > 20
24 | CCn1cc(C(=O)O)c(=O)c2ccc(Cc3ccccc3)nc21 [AMFONELIC ACID] | > 20 | > 20
25 | N[C@H](CCC(=O)NCCS(=O)(=O)O)C(=O)O | > 20 | > 20
26 | c1ccc2c(CC3=NCCN3)cccc2c1 [NAPHAZOLINE] | > 20 | > 20

Row | Structure (SMILES) | IC50 [µM] | IC50 (read-out: pIC50 (converted)) [µM]
27 | CC(=O)Nc1cc2ccccc2oc1=O | > 20 | > 20
28 | N=C(N)NCCCOc1ccccc1 [GUANOXYFEN] | > 20 | > 20
29 | CC(C)=CCC[C@@](C)(O)[C@H]1CC=C(C)CC1 | > 20 | > 20
30 | O=C(O)c1cn(C2CC2)c2cc(N3CCC(O)(COc4ccc(N5C[C@H](CO)OC5=O)cc4F)CC3)c(F)cc2c1=O [CADAZOLID] | > 20 | > 20
31 | Cc1cc(=O)oc2cc(O)ccc12 [HYMECROMONE] | > 20 | > 20
32 | COc1ccc([C@@H]2CNC(=O)[C@@H](Cc3cccc(C)c3)C2)cc1OC1CCCC1 | > 20 | > 20
33 | COC(=O)[C@H](C)N[P@](=O)(OC[C@H]1O[C@@H](n2cc(/C=C/Br)c(=O)[nH]c2=O)C[C@@H]1O)Oc1ccccc1 | > 20 | > 20
34 | O=C(O)COC(=O)Cc1ccccc1Nc1c(Cl)cccc1Cl [ACECLOFENAC] | > 20 | > 20
35 | Nc1nccs1 [AMINOTHIAZOLE] | > 20 | > 20
36 | CCC1(CC)C(=O)NC(=O)NC1=O [BARBITAL] | > 20 | > 20
37 | COc1cc2c(cc1O)CCNC2C (stereo unspecified) [SALSOLINE] | > 20 | > 20
38 | O=C1c2cccnc2OC[C@@H]2CCCN12 | > 20 | > 20
39 | NC(=O)c1cn(Cc2c(F)cccc2F)nn1 [RUFINAMIDE] | > 20 | > 20
40 | CC(N)(Cc1ccc(O)c(O)c1)C(=O)O (stereo not drawn) [METHYLDOPA (RACEMIC)] | > 20 | > 20
41 | CC(=O)O[C@@]12CO[C@@H]1C[C@H](O)[C@@]1(C)C(=O)[C@H](O)C3=C(C)[C@@H](OC(=O)[C@H](O)[C@@H](NC(=O)OC(C)(C)C)c4ccccc4)C[C@](O)([C@@H](OC(=O)c4ccccc4)[C@H]21)C3(C)C | > 20 | > 20
42 | CC12CCC3C4CCC(O)CC4=CCC3C1CCC2O (stereo unspecified) | > 20 | > 20
43 | COc1ccccc1OCC(O)COC(N)=O (stereo unspecified) [METHOCARBAMOL] | > 20 | > 20
44 | O=C(O)[C@H]1O[C@@H](Oc2cc3oc(-c4ccccc4)cc(=O)c3c(O)c2O)[C@H](O)[C@@H](O)[C@@H]1O [BAICALIN] | > 20 | > 20
45 | CNCCC(Oc1ccc(C(F)(F)F)cc1)c1ccccc1 (stereo unspecified) [FLUOXETINE] | > 20 | > 20
46 | Nc1ccc(S(=O)(=O)Nc2ccc(Cl)nn2)cc1 [SULFACHLORPYRIDAZINE] | > 20 | > 20
47 | COc1cccc([C@H](O)C2CCN(CCc3ccc(F)cc3)CC2)c1OC [VOLINANSERIN] | > 20 | > 20
48 | CC(=O)N1CCCC1C(=O)O (stereo unspecified) [N-ACETYLPROLINE] | > 20 | > 20
49 | CC(C)(C)c1ccc(Oc2ccc(N)cn2)cc1 [LIMANTRAFIN] | > 20 | > 20
50 | NC(=O)Cc1cccc(C(=O)c2ccccc2)c1N | > 20 | > 20
51 | O=C(CCCN1CCC(O)(c2ccc(Br)cc2)CC1)c1ccc(F)cc1 [BROMPERIDOL] | > 20 | > 20
52 | CCC(=O)O[C@](Cc1ccccc1)(c1ccccc1)[C@H](C)CN(C)C [PROPOXYPHENE] | > 20 | > 20

Row | Structure (SMILES) | IC50 [µM] | IC50 (read-out: pIC50 (converted)) [µM]
53 | O=C(O)CCCc1ccc(N(CCCl)CCCl)cc1 [CHLORAMBUCIL] | > 20 | > 20
54 | CCC1=C(C)CN(C(=O)NCCc2ccc(S(=O)(=O)NC(=O)N[C@H]3CC[C@H](C)CC3)cc2)C1=O [GLIMEPIRIDE] | > 20 | > 20
55 | CCOC(=O)Nc1ccc2c(c1)N(C(=O)CCN1CCOCC1)c1ccccc1S2 [MORICIZINE] | > 20 | > 20
56 | CC(C)(C)C(=O)OCOC(=O)[C@@H]1N2C(=O)[C@@H](NC(=O)[C@H](N)c3ccccc3)[C@H]2SC1(C)C [PIVAMPICILLIN] | > 20 | > 20
57 | N#Cc1c(Cl)c(Cl)c(Cl)c(C#N)c1Cl [CHLOROTHALONIL] | > 20 | > 20
58 | COc1ccc(CCC(C)NCC(O)c2ccc(O)c([S+](C)[O-])c2)cc1 (stereo unspecified) [SULFINALOL] | > 20 | > 20
59 | CCCC(CCC)C(=O)O [VALPROIC ACID] | > 20 | > 20
60 | COc1cc(C)c(/C=C/C(C)=C/C=C/C(C)=C/C(=O)O)c(C)c1C [ACITRETIN] | > 20 | > 20
61 | C=C1C/C(=C/C)C(=O)O[C@@H]2CCN3CC=C(COC(=O)[C@]1(C)O)[C@H]23 [SENECIPHYLLINE] | > 20 | > 20
62 | CC12CCC3C(CC[C@H]4Cc5n[nH]cc5C[C@]34C)C1CC[C@]2(C)O (stereo partly specified) | > 20 | > 20
63 | CCCN(CCC)C(=O)Cc1c(-c2ccc(Cl)cc2)nc2ccc(Cl)cn12 [ALPIDEM] | > 20 | > 20
64 | C[C@@H](N)Cc1c[nH]cn1 | > 20 | > 20
65 | CC(C)(Oc1ccc(C2CCCc3ccccc32)cc1)C(=O)O (stereo unspecified) [NAFENOPIN] | > 20 | > 20
66 | C[C@@H](O)CCCCn1c(=O)c2c(ncn2C)n(C)c1=O [LISOFYLLINE] | > 20 | > 20
67 | Cc1ccc2c(-c3ccc(F)cc3)nc(=O)n(C(C)C)c2c1 [FLUPROQUAZONE] | > 20 | > 20
68 | Cc1cc(C)c(CNC(=O)c2cc(Cl)c3c(c2C)OC(C)([C@H]2CC[C@H](N(C)C)CC2)O3)c(=O)[nH]1 (stereo partly specified) | > 20 | > 20
69 | CC(C)[N@+]1(C)C2CC[C@H]1C[C@@H](OC(=O)C(CO)c1ccccc1)C2 (stereo partly specified) | > 20 | > 20
70 | CC(=O)O[C@H]1CC[C@@]2(C)C(CC[C@]3(C)C2C(=O)C=C2[C@H]4C[C@@](C)(C(=O)O)CC[C@]4(C)CC[C@]23C)C1(C)C (stereo partly specified) | > 20 | > 20
71 | [O-][n+]1ccccc1S [PYRITHIONE] | > 20 | > 20
72 | CC(C)CCCC(C)C1CCC2C3CC(O)[C@@]4(O)CC(O)CCC4(C)C3CCC12C (stereo partly specified) | > 20 | > 20
73 | O=C(O)COC[C@H]1CC[C@H](COC(=O)N(c2ccccc2)c2ccc(Cl)cc2)CC1 | > 20 | > 20
74 | CC1CC2Oc3ccc(Cl)cc3C(=O)N2O1 (stereo unspecified) [MESECLAZONE] | > 20 | > 20
75 | Cc1onc(-c2ccccc2)c1-c1ccc(S(N)(=O)=O)cc1 [VALDECOXIB] | > 20 | > 20
76 | Nc1nc(=O)n([C@H]2C[C@H](O)[C@@H](CO)O2)cc1F | > 20 | > 20
77 | COc1cc(NS(=O)(=O)c2ccc(N)cc2)ncn1 [SULFAMONOMETHOXINE] | > 20 | > 20
78 | O=C(O)CCc1c[nH]c2ccccc12 [INDOLYLPROPIONIC ACID] | > 20 | > 20
